Consider two substances from US7795226B2, “Control of radiation injury” (Biotempt B.V., priority 2006, dated 2010).

Assay [1] deals with LPS-induced septic shock in mice. The following applies: single treatment after high dose LPS injection; cited from earlier work.
For assay [2], the system named is C57B1/6 mice after Whole Body Irradiation. In words: Whole Body Irradiation 8.6 Gy, treatment from three hours after WBI. It is filed as in vivo. Here is the method:
“WBI” stands for Whole Body Irradiation. Radiation damage protection in vivo was assessed after WBI (6.5 to 9.8 Gy, Philips MG 30 at 81 cGy/min) on anesthetized C57B1/6 mice, and survival differences were measured by Kaplan-Meirer analysis. All groups of mice got the first injection with peptide or vehicle (control animals) three hours after the WBI. The group that got a placebo injection experienced 80% mortality, as predicted in this model. The dose of radiation of 8.6 Gray (=8.6 Gy) is known, in this species, to cause about an 80% mortality, so it is called the LD80 (lethal dose for 80%). The deaths started around Day 10, which is typical for what happens in WBI to animals or humans. By around Day 10, the gut lining is so damaged and leaky from the radiation that bacteria get into the circulation and cause gastrointestinal syndrome, and the bone marrow is so damaged that there is an insufficient number of white blood cells to fight the infection (“Bone Marrow Syndrome”), and death ensues. The group with “x” as the symbol got the first injection IV, and the second injection subcutaneously (SC) three hours after that first injection. 100% of these animals survived. […] To an outside observer, they would look like perfectly normal mice. The group with the triangle symbol got its first injection of the peptide via the SC route. Then it got additional SC injections every 48 hours, for a total of three doses (in addition to the first dose), meaning, on Day 3, Day 5, and Day 7. […] The group with the square symbol was identical in procedures to the group with the triangle symbol, except that the 48 hour SC injections continued on until a total of six doses had been injected (in addition to the first dose). So the dosing continued on until Day 13. […] When the animals got lower-level treatment (SC only), if the treatment was prolonged until the second week, here again, there was complete protection.
The group that got a placebo injection experienced 80% mortality, as predicted in this model. The dose of radiation given (8.6 Gray =8.6 Gy) is known, in this species, to cause about an 80% mortality, so it is called the LD80 (lethal dose for 80%). The deaths starting around Day 10, which is typical for what happens in WBI to animals or humans. By around Day 10, the gut lining is so damaged and leaky from the radiation that bacteria get into the circulation and cause sepsis because of Gastrointestinal (GI) Syndrome, and the bone marrow is so damaged that there is an insufficient number of white blood cells to fight the infection (“Bone Marrow Syndrome”), and death ensues.
A first group of peptide-treated mice (group with “x” as the symbol in FIG. 1) got the first injection with AQGV (SEO ID NO:120) IV, and the second injection subcutaneously (SC) three hours after that first injection.
A second group of mice got its first injection of the peptide via the SC route. Then it got additional SC injections every 48 hours, for a total of three doses (in addition to the first dose), meaning, on Day 3, Day 5, and Day 7.
The third group of mice was identical in procedures to the group with the second group, except that the q48 hour SC injections continued on until a total of six doses had been injected (in addition to the first dose). So the dosing continued on until Day 13.

Where [3] appears, read: first SC injection three hours after WBI, then SC every 48 hours, six additional doses.
[4] abbreviates: first injection IV three hours after WBI, second SC three hours later.

For VLPALP (hexamer peptide), the “septic shock in mice (in words)” value in assay [1] is recorded as “inhibited septic shock in mice”.

Regarding AQGV, in assay [2] (setting [3]), the “mortality after WBI (in words)” value is listed as “no mortality whatsoever” and the “signs of sickness after WBI (in words)” value is given as “showed no signs of sickness”. Besides, in assay [2] (first SC injection three hours after WBI, then SC every 48 hours, three additional doses), the “mortality after WBI (in words)” value was “only one of these animals died”. For the same substance, in assay [2] (setting [4]), the “signs of sickness after WBI (in words)” value is reported as “did not show any signs of sickness at all” and the “survival after WBI” value is on record as 100%.
